Laboratory results published in patent US20060030719A1, “Cis-3,5-disubstituted-dihydro-furan-2-ones and the preparation and use thereof” (priority 2004, published 2006).

melting point: 60 to 62 °C
Compound: C[C@@H]1C[C@H](CC2CCCCC2)C(=O)O1 (relative stereo) [Example 20, cis-3-cyclohexylmethyl-5-methyl-dihydro-furan-2-one]
